Experiments:
cotton = experiment: Cotton defoliation with oxalic acid, EDTA, citric acid as adjuvants, field plots; type: in vivo; settings: Day 7 after spraying, test size field plots
Procedure: Oxalic acid (Adj II), EDTA (Adj III), and citric acid (Adj IV) were used as an adjuvants with harvest aid chemicals and compared to the commercial products ethephon and ethephon plus cyclanilide. The comparison was for defoliation only at 7 days after spraying on cotton. The tests were conducted on test size field plots, at dosages of 1 pound or 0.5 pounds per acre (#/ac).

Alternaria solani = experiment: Fungicide for control of Early Blight on tomatoes; type: in vivo; settings: tomato plants innoculated with the fungi; ratings after one week
Text: The tomato plants were innoculated with the fungi. The ratings were made after one week on the percent leaves infected with Alternaria and also the number with bad damage—necrosis.

potato vines = experiment: Dessication of potato vines before harvest (speed); type: in vivo; settings: for Defol %: at the time printed in column Hour; for Hour: time at which the printed Defol % was seen
Text: This example was used to how various permeabilizers are able to improve the speed in which various active components are able to obtain their desired effects on treated plants. In this example, a combination of oxalic acid and citric acid (Adjuvant 1) was used in combination with the harvest aid chemicals paraquat and diquat for the dessication of potato vines before harvest and compared to the commercial rates paraquat and diquat.

Xanthomonas campestris = experiment: Bactericide on bacterial leaf spot on tomatoes; type: in vivo; settings: tomato plants innoculated with the bacteria; ratings after two weeks
Text: The tomato plants were innoculated with the bacteria. […] The ratings were made after two weeks on the percent leaves infected.

Eastern Tent caterpillar = experiment: Ingestion insecticide sprayed on the tent; type: in vivo; settings: evaluated 1 day after application
Procedure: This test involved the evaluation of an ingestion insecticide on the Eastern Tent caterpillar. The insecticide was mixed in a tank at the shown rate and sprayed on the tent, and the evaluation was performed after 1 day following application.

[1] = tested on: fireblight on Southern Crepe Myrtle; experiment: Streptomycin for control of fireblight on Southern Crepe Myrtle; settings: infected plants sprayed until wet; ratings after two days

## O=P(O)(O)CCCl [eth 1#/ac, ethephon]
cotton
  Defol %: 72%

## N#Cc1c(Cl)c(Cl)c(Cl)c(C#N)c1Cl [Chlorothalonil 2.5 pt/ac, chlorothalonil]
Alternaria solani
  Infected Leaflets: 60%
  Infected Leaves: 42%
  Leaflets with >50% Necrosis: 42%

## c1cc[n+]2c(c1)-c1cccc[n+]1CC2 [diquat 2 qt/ac, diquat]
Potato vines
  Defol %: 96%
  Hour: 24 h

## [Cu+2].[OH-].[OH-] [Copper 2#/acre, copper hydroxide]
Xanthomonas campestris
  Percent Leaves Infected: 63%

## CS/C(C)=N\OC(=O)N(C)SN(C)C(=O)O/N=C(\C)SC [Thiodicarb 0.1%, Thiodicarb]
Eastern Tent caterpillar
  Insecticide Efficacy: 32%

## C[n+]1ccc(-c2cc[n+](C)cc2)cc1 [paraquat 2 qt/ac, paraquat]
Potato vines
  Defol %: 98%
  Hour: 36 h

## [H]/N=C(/N)N[C@H]1[C@H](O)[C@@H](O)[C@H](O[C@@H]2O[C@@H](C)[C@](O)(C=O)[C@H]2O[C@@H]2O[C@@H](CO)[C@H](O)[C@@H](O)[C@@H]2NC)[C@@H](N/C(N)=N\[H])[C@@H]1O [Streptomycin, streptomycin]
[1]
  Level Required for Control: 60 ppm

From US8481458B2, “Adjuvant for pesticides” (priority 2002, dated 2013)
